We go through eleven compounds from US20080119517A1, “COMPOSITIONS AND METHODS FOR PROTECTING AGAINST MITOCHONDRIA COMPONENT-MEDIATED PATHOLOGY” (Cornell Research Foundation, Inc., priority 2003, published 2008).

Entries after “also recorded” stand apart in the source; their conditions may differ.

Data set [1] has as its system rabbit models of cerebral and spinal ischemia. To be noted: in vivo; cited from earlier work.
The subject of data set [2] is gerbil ischemia-reperfusion model. To be noted: cited from earlier work.
The test system of data set [3] is isolated liver mitochondria. In words: Four-parameter mitochondrial physiology (oxygen, Ca2+, membrane potential, swelling). Particulars: 10 μM; for protection against PT induction (swelling, A660): high Ca2+ dose. Type of data set: biochemical, rat. How it is done: Mitochondrial physiological parameters were assessed to determine whether these heterocyclics and related compounds interfered direly with mitochondrial functions, and whether such interference might underlie their protection (e.g., respiratory inhibitors can score as protective in some assays, as can uncouplers, but neither would be optimal as a therapeutic candidate). […]; methiothepin [serotonin modulator]; clomipramine [antidepressant]).
FIG. 5 illustrates that the heterocyclic compounds delay PT induction in isolated liver mitochondria without impairing mitochondrial physiology. FIG. 5a depicts oxygen consumption measured by Clark electrode. Oxygen concentration in buffer decreases as the signal decreases. FIG. 5b depicts Ca^2+ transport measured by Ca^2+— selective electrode. The Ca^2+ in buffer increases as the signal increases. FIG. 5c depicts Δψ measured using a TPP^+ electrode. The Δψ parameter decreases as the signal increases. TPP^+ uptake determined by comparison with standard curve after correction for shift in the electrode signal is induced by the compounds examined. […] Changes in Δψ consistent with the slight increases in respiration (equivalent to approximately 5% of maximally uncoupled mitochondria) observed with some drags is likely below the limit of detection. FIG. 5d depicts mitochondrial swelling (absorbance) monitored by a light emitting diode BET) at A660. Mitochondrial are more swollen when signal decreases. Assay in 300 mM sucrose, 2.5 mM K—PO4, 3 mM HERPES, pH 7.2 and 5 mM succinate. Experiments were stopped shortly after oxygen was consumed.
Liver mitochondrial respiration was measured in 250 mM sucrose, 3 mM MgCl2, 0.5 mM EDTA, 10 mM KH2PO4 (pH 7.2). The buffer was equilibrated at 28° C. for not less than an hour before taking measurements. Respiration was initiated by adding mitochondria isolate to the oxygraph cell (0.9±0.2 mg/mL protein). State 3 respiration was initiated with ADP (˜200 μM). The substrates were added at either 5 or 10 mM for α-ketoglutarate and glutamate/malate and 10-20 mM for succinate. Respiration rates were determined using a PC-controlled Strathkelvin Instruments Limited 928 6-Channel Dissolved Oxygen System with two standard Clark-type electrodes fitted to two standard Gilson 1.7-1.8 mL oxygraph cells. Traces were analyzed using the Strathkelvin data acquisition and analysis program included with the instrument. The lines of best fit were calculated and plotted to polarographic traces using the built-in software function based on least squares regression analysis. State 3 respiration rates were calculated when stabilized, i.e., 1.0-1.5 minutes after initiating the state. Respiration before and after ADP consumption was used to calculated RCR. All experiments were carried out in triplicate. All substrates used in mitochondrial respiration experiments were dissolved in respiration buffer (see below) and brought to neutral pH.
The experimental system employed comprises a respiration chamber that can be sealed and placed in a light tight outer chamber. Electrodes and sensors are positioned in a single plane around the outside of the chamber—this system enables simultaneous measurement of oxygen uptake, membrane potential, calcium, and light scattering (absorbance). Oxygen uptake, membrane potential, and Cab are measured using Clark, TPP^+, and Ca^2+-sensitive electrodes, respectively see, Zhu, S., et al., Nature 417:74-78, 2002. A660 is measured using a diode. The chamber is water-jacketed to allow thermostabilization (15-to-1 water volume to sample volume −1 mL, closed chamber). Samples were constantly stirred using a top-mounted magnetic stir bar. Signals measured from electrodes and sensors are recorded on a computer through a commercially available L-154 card. Software has been written to enable data collection and analysis. All experiments were carried out in triplicate. Plots shown in the paper are representative.

The target in data set [4] is calmodulin (Homo sapiens, UniProt P0DP23). Description: Calmodulin-dependent calcineurin activity (pNPP hydrolysis). Particulars: 300 μM compound.
The subject of data set [5] is PT induction in isolated rat liver mitochondria. Description: High throughput spectrophotometric PT-induced swelling assay following Ca2+ challenge. Type of data set: biochemical. Particulars: for protection against PT induction, score in the initial screen: 10 μM, blind library screen. The text has this: This library was primarily composed of clinically-approved drugs that could readily be moved to late stage pre-clinical trials and then into accelerated clinical trials. […] The remainder of the library largely consisted of some analogues of these drugs, other known bioactive agents (including natural products, toxins and known inhibitors). Screening of this library was blind and was designed to identify compounds that acted independently of antioxidant activity or ability to chelate Ca^2+ (FIG. 2).
Assays were performed on mitochondria energized with succinate, glutamate/malate, or α-ketoglutarate. […] Subsequent assays (see, Table 1) repeated this approach using inducers optimized to overcome protection mediated by chelators (high C^2+ or antioxidants (high tert-butyl hydroperoxide), based on the rationale that it was unlikely to identify novel drug activities in these categories.
Each of these compounds was re-assayed against three models of PT induction and ranked according to the resistance it conferred to induction.
Bars are coded by each drug's therapeutic class. […] Compounds were assayed in triplicate at 7 concentrations (30, 10, 3, 1, 0.3, 0.1, and 0.03 μM) against three different challenges (50 μM Ca^2+/2.5 mM K—PO4, 25 μM Ca^2+/5 mM K—PO4, 25 μM Ca^2+/2.5 mM K—PO4/100 μM tert-butyl hydroperoxide). […] To address potential inaccuracies introduced by calculation of the area under the curve, protection was also assayed as percent absorbance remaining when absorbance of an unprotected sample had dropped and stabilized. […] “N” for each drug is 7 to 9. Horizontal lines show mean and mean plus one standard deviation.

Data set [6] relates to mouse middle cerebral artery occlusion (MCAO). To be noted: in vivo.
In data set [7] the test system is primary cerebrocortical neurons. Description: Oxygen-glucose deprivation (OGD) of cultured primary cerebrocortical neurons. Type of data set: cell-based, mouse. How it is done:
Heterocyclic-mediated protection was next examined in two models of stroke: (i) oxygen-glucose deprivation (OGD) of cultured primary cerebrocortical neurons, and; (ii) in the mouse, middle cerebral artery occlusion (MCAO)/reperfusion.
Neurotoxicity studies were conducted as previously described. […] Cerebral cortex of mouse embryos at day 15 (E15) were freed from meninges and separated from olfactory bulb and hippocampus.
OGD of primary cerebrocortical neurons is a widely used cell culture model of stroke-related pathology. […] Caspase-3 activation plays a key role in hypoxia/ischemia-mediated injury. To gam insight into the mechanism of promethazine-mediated neuroprotection, it was evaluated whether this compound could inhibit OGD-mediated caspase-3 activation.

Data set [8] deals with apoptosis / PT induction. To be noted: suggested; by reducing mitochondrial oxidative stress; cited from earlier work.
Data set [9] deals with ischemia-reperfusion injury in multiple models. To be noted: cited from earlier work.
For data set [10], the system named is phospholipase A2 (PLA2). Particulars: cited from earlier work.
In data set [11] the test system is humans. Particulars: human, in vivo; cited from earlier work.

As to `CN(C)CCCN1c2ccccc2Sc2ccc(Cl)cc21` [Chlorpromazine], the functional impairment entry in [1] is “reduced”.
As to `CN(C)CCCN1c2ccccc2CCc2ccc(Cl)cc21` [Clomipramine], in [2] (20 mg/kg), the “hippocampal CA1 neuronal damage” value was “protect”. In data set [3], the “Ca2+ transport” value is “without affecting”; the “initial oxygen consumption prior to PT induction” value (from here on “initial oxygen consumption prior”) was “without affecting”; the “resting or recovered Δψ” value is “without affecting”; the “protection against PT induction (swelling, A660)” value (“protection … (swelling, A660)” for short) is “protected”.
Take `OCCN1CCN(CCCN2c3ccccc3Sc3ccc(C(F)(F)F)cc32)CC1` [Flufenazine]: in data set [3], the “Ca2+ transport” value is on record as “without affecting”; the “initial oxygen consumption prior” value is “without affecting”; the “resting or recovered Δψ” value is listed as “without affecting”; the “protection … (swelling, A660)” value is listed as “protected”.
Consider `CCOC(=O)N1CCC(=C2c3ccc(Cl)cc3CCc3cccnc32)CC1` [Loratadine], for which, in [4], the “calmodulin activity (ratio to untreated plate controls)” value is on record as “apparent calmodulin activation”.
For the compound `CSc1ccc2c(c1)C(N1CCN(C)CC1)Cc1ccccc1S2` (stereo not drawn) [Methiothepin], in data set [3], the “Ca2+ transport” value is reported as “without affecting”; the “initial oxygen consumption prior” value is given as “without affecting”; the “resting or recovered Δψ” value was “without affecting”; the “protection … (swelling, A660)” value is reported as “protected”. Also, the “relative potency as PT inhibitor” value in data set [5] (ranking among the heterocyclics) is listed as “approximately equivalent to promethazine in potency”.
As for `CN1CCN2c3ccccc3Cc3ccccc3C2C1` (stereo not drawn) [Mianserin], in data set [2] (5-20 mg/kg), the “protection in the gerbil ischemia model” value was “protects”.
As for `CNCCC=C1c2ccccc2CCc2ccccc21` [Nortriptyline], in [6], the “infarct (stroke) volume” value was “significant reduction”, the “infarct area in coronal slices compared to the controls” value is reported as “decreases”, the “neurological examination following cerebral ischemia” value is given as “improves” and the “neuroprotection following MCAO” value is “mediates neuroprotection”. In addition, the “OGD-mediated caspase-3 activation” value in [7] is “inhibits; also recorded: attenuated”. For the same compound, the “OGD mediated cytochrome C release” value in data set [7] (Western blot) is listed as “Inhibiting; also recorded: minimized”. Also, in data set [7] (nortriptyline), the “OGD cell death as measured by LDH release” value was “preventing cell death; also recorded: reduction”.
As for `CSc1ccc2c(c1)N(CCC1CCCCN1C)c1ccccc1S2` (stereo not drawn) [Thioridazine], in data set [8], the PT induction entry is “delay” and the apoptosis entry was “inhibit”.
As for `CN1CCN(CCCN2c3ccccc3Sc3ccc(C(F)(F)F)cc32)CC1` [Trifluoperazine], in [9], the “protection against ischemia-reperfusion injury” value was “protective”. Also, in [10], the “phospholipase A2 (PLA2) inhibition” value is “can inhibit”. The “protection against PT induction, score in the initial screen” value in [5] is given as “moderate”. In data set [1], the functional impairment entry is recorded as “reduced”. In addition, the tolerability in humans entry in data set [11] is recorded as “limited utility for long-term use in humans because of its toxicity”.
For the compound `CN1CCN(CC(=O)N2c3ccccc3C(=O)Nc3cccnc32)CC1` [pirenzepine], the “calmodulin activity (ratio to untreated plate controls)” value in data set [4] is “apparent calmodulin activation”.
Regarding `CC/C(=C(\c1ccccc1)c1ccc(OCCN(C)C)cc1)c1ccccc1` [tamoxifen], in data set [5], the “protection against PT induction, score in the initial screen” value is on record as “moderate”.
